According to US7264969B1, “Carrier system for specific artery wall gene delivery” (University of Utah Research Foundation, priority 2000, dated 2007):
Where no end group is shown, it is not given here.

Key:
DNase I = assay: DNase protection assay; settings: 37° C.; charge ratio 2/1 (+/−); 10 times excess of DNase I; FIG. 3B
Description: AWBP-PEG-g-PLL/pDNA complexes were prepared at the charge ratios of 2/1 (+/−) and incubated in the presence of 10 times excess of DNase I. At 0, 5, 10, 15, 20, 60, and 120 minutes after incubation, 50 μl of the sample was transferred into another tube and mixed with 100 μl of stop solution (400 mM NaCl and 100 mM EDTA) using mild agitation with a vortexer. The sample was then mixed with 12 μl of 10% (w/v) sodium dodecyl sulfate (SDS) and incubated at 65° C. overnight. DNA was extracted with the mixture of Tris-EDTA saturated phenol:chloroform:isoamyl alcohol (25:24:1, v/v). The extracted DNA was precipitated with 700 μl of absolute ethanol at 12,000 rpm for 30 minutes and washed with 70% ethanol. The DNA precipitate was air-dried and then dissolved in 10 μl TE buffer. The plasmid integrity was assessed by electrophoresis in a 1% agarose gel.

[1] = tested on: bovine aorta endothelial cells; assay: Transfection assay (luciferase gene expression); type: cell-based
Description: (§1) Gene expression. (Transfection assay) Primary bovine aorta endothelial cells and smooth muscle cells were prepared, cultured, characterized, and identified as described in L. Yu et al., supra. Bovine aorta endothelial cells (5×10^5/well) and smooth muscle cells (2×10^5/well) were seeded in 24-well plates with 1 ml Dulbecco's modified Eagle medium (DMEM, Hyclone Laboratories, Logan, Utah) containing 10% fetal bovine serum (FBS, Hyclone Laboratories) and incubated for 24 hours to 70-80% confluency. The AWBP-PEG-g-PLL/pCMV-Luc complexes were freshly prepared in PBS for the transfection with fixed amount of plasmid DNA (2 μg/well) and various amounts of AWBP-PEG-g-PLL. After incubation of complexes for 30 minutes at room temperature, 100 μl of complex solution was added to the cells and then incubated for 3 hours at 37° C. in 5% CO2 atmosphere. After replacement of media, the cells were incubated for 40 hours under the same conditions. The cells were washed three times with PBS buffer and made ready for the reporter gene expression assay.
(§2) (Gene expression assay) Transgene expression was evaluated by luciferase activity of cell lysates from transfected bovine aorta endothelial cells and smooth muscle cells. Measurement of luciferase activity was performed according to the manufacturer's instruction (Luciferase Assay System, Promega, Madison, Wis.). Briefly, the transfected cells were lysed with 1× lysis buffer (1% Triton X-100), 100 mM KPO4, 2 mM dithiothreitol, 10% glycerol, and 2 mM EDTA, pH 7.8) for 15 minutes at room temperature. To measure the luciferase activity, 20 μl aliquot of cell lysate was mixed with 50 μl of luciferase assay reagent at room temperature and inserted in the luminometer. Light emission was measured in triplicate over 10 s and expressed as relative light units (RLUs). RLUs were normalized from the protein content of each sample, which was determined by BCA protein assay.

[2] = tested on: bovine aorta smooth muscle cells; assay: Transfection assay (luciferase gene expression); type: cell-based
Description: as §1, §2

[3] = tested on: bovine aorta endothelial cells; assay: Transfection inhibition assay with free AWBP; type: cell-based; settings: free AWBP 31.25 μM to 500 μM
Description: (§3) (Transfectioninhibition assay). Bovine aorta endothelial cells (5×10^5/well) and smooth muscle cells (2×10^5/well) were seeded in 24-well plates 1 day prior to transfection with 70 to 80% confluence. The AWBP-PEG-g-PLL/pCMV-Luc complexes were freshly prepared in PBS buffer for the transfection with a fixed amount of plasmid DNA (2 μg/well) and AWBP-PEG-g-PLL (4 μg/well). After addition of various amounts of free artery wall binding peptide (range from 31.3 μM to 1.0 mM) for 20 minutes at 4° C., 100 μl AWBP-PEG-g-PLL/pCMV-Luc solution was added to the cells. All the other conditions were the same as described above for the transfection assay.
as §2, with “To measure the luciferase activity, 20 μl aliquot of cell lysate was mixed with 50 μl of luciferase assay reagent at room temperature and inserted in the luminometer.” left out

[4] = tested on: bovine aorta smooth muscle cells; assay: Transfection inhibition assay with free AWBP; type: cell-based; settings: free AWBP 31.25 μM to 500 μM
Description: as §3
as §2, with “To measure the luciferase activity, 20 μl aliquot of cell lysate was mixed with 50 μl of luciferase assay reagent at room temperature and inserted in the luminometer.” left out

| Substance | time for which pDNA is protected from digestion with DNase (DNase I) | luciferase activity of cell lysate ([1]; ratio carrier to plasmid DNA from 1.5:1 to 2:1, FIG. 6A) | luciferase activity of cell lysate ([1]; ratio carrier to plasmid DNA from 2:1 to 5:1, FIG. 6A) | luciferase activity of cell lysate ([2]; ratio carrier to plasmid DNA from 1.5:1 to 2:1, FIG. 6B) | luciferase activity of cell lysate ([2]; ratio carrier to plasmid DNA from 2:1 to 5:1, FIG. 6B) | effect of free AWBP on gene transfer by AWBP-PEG-g-PLL/pDNA complexes [3] | effect of free AWBP on gene transfer by AWBP-PEG-g-PLL/pDNA complexes [4] |
| --- | --- | --- | --- | --- | --- | --- | --- |
| AWBP-PEG-g-PLL: artery wall binding peptide (SEQ ID NO:2) conjugated to poly(ethylene glycol)-grafted-poly(L-lysine), about 4 mol AWBP per mole (CGRALVDTLKFVTQAEGAK; also: conjugated to PEG-grafted poly(L-lysine), about 4 mol peptide per mole, site not given here; listed as Homo sapiens) | at least 2 hours | significantly increased | remained constant | significantly increased | remained constant |  |  |
| AWBP: synthetic peptide based on arterial binding domain of apo B-100 (residues 1000-1016) with cysteine added to amino-terminus (CGRALVDTLKFVTQAEGAK; listed as Homo sapiens) |  |  |  |  |  | significantly inhibit | significantly inhibit |
